ChEMBL document CHEMBL5042473 (J Med Chem, 2022)

How the values were obtained:
[1] = molecular target: Mitogen-activated protein kinase 14 (Homo sapiens, UniProt Q16539); experiment: Inhibition of human p38 MAPK alpha incubated for 1 hr by photometric method
[2] = Metabolic stability in human liver microsomes assessed as parent compound remaining incubated for 120 mins; assay type: ADME, Microsome; conditions: read-out: Stability
[3] = Ratio of drug concentration in RjOrl:Swiss (CD-1) mouse brain to plasma at 10mg/kg, iv administered measured after 2 hrs by LC-MS/MS analysis; assay type: ADME, organism-based; conditions: brain and plasma, read-out: BPR
[4] = Drug uptake in mouse C57BL/6 brain at 0.4 mg/kg,po measured upto 240 mins by LC-MS/MS analysis; assay type: ADME, organism-based; conditions: in vivo, 4 h
Blood = experiment: Antiinflammatory activity against LPS-stimulated C57BL/6 mouse whole blood assessed as reduction in TNF-alpha at 1 nM incubated for 24 hrs by ELISA based method; assay type: functional; parameters: scale not given: the % may be the effect or the level left
[5] = Cytotoxicity against Balb/c mouse splenocytes assessed as metabolic activity at 100 nM incubated for 24 hrs by MTT assay relative to LPS-stimulated splenocytes; assay type: toxicity, cell-based, Splenocyte; conditions: read-out: Activity
[6] = Drug uptake in mouse C57BL/6 brain at 0.4 mg/kg,iv measured upto 240 mins by LC-MS/MS analysis; assay type: ADME, organism-based; conditions: in vivo, 4 h
Splenocyte = experiment: Cytotoxicity against Balb/c mouse splenocytes assessed as metabolic activity at 1 to 10 nM incubated for 24 hrs by MTT assay; assay type: toxicity, cell-based; conditions: 0.01 µM, dose 1-10 nM
[7] = Drug uptake in RjOrl:Swiss (CD-1) mouse brain at 10 mg/kg, iv administered measured after 2 hrs by LC-MS/MS analysis; assay type: ADME, organism-based; conditions: read-out: Ct

Sequence of Mitogen-activated protein kinase 14 (Q16539 whole entry): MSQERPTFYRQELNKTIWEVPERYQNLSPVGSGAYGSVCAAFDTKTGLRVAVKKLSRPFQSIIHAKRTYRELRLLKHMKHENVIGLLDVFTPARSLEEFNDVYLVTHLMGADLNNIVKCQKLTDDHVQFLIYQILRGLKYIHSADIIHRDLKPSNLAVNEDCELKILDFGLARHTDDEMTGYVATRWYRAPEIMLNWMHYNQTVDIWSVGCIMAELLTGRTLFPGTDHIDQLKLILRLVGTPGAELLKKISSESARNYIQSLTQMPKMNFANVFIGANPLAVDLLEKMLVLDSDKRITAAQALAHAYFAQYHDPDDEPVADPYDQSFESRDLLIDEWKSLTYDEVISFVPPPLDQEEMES

| IC50 [1] | Compound | further results |
| --- | --- | --- |
| 1.2 nM | COC(=O)CC[C@H](NC(=O)c1ccc2c(c1)C(=O)c1ccc(Nc3ccc(F)cc3F)cc1CC2)C(=O)OC |  |
| 28 nM | O=C(NCCc1c[nH]c2ccccc12)c1ccc2c(c1)C(=O)c1ccc(Nc3ccc(F)cc3F)cc1CC2 | remaining at 2 h [2]: 71% |
| 18 nM | Nc1ccccc1Nc1ccc2c(c1)CCc1ccc(C(=O)NCCN3CCNCC3)cc1C2=O |  |
| 5.4 nM | COC(=O)[C@@H](N)CNC(=O)c1ccc2c(c1)C(=O)c1ccc(Nc3ccc(F)cc3F)cc1CC2 | remaining at 2 h [2]: 12% |
| 50 nM | O=C(NCCCc1ccccc1)c1ccc2c(c1)C(=O)c1ccc(Nc3ccc(F)cc3F)cc1CC2 |  |
| 13 nM | COC(=O)[C@H](CCSC)NC(=O)c1ccc2c(c1)C(=O)c1ccc(Nc3ccccc3N)cc1CC2 | remaining at 2 h [2]: 0% |
| 390 nM | CN(CCc1ccccc1)C(=O)c1ccc2c(c1)C(=O)c1ccc(Nc3ccc(F)cc3F)cc1CC2 |  |
| 3.5 nM | N[C@@H](CCCCNC(=O)c1ccc2c(c1)C(=O)c1ccc(Nc3ccc(F)cc3F)cc1CC2)C(=O)O | Kp at 2 h [3]: 0.01 |
| 14 nM | Nc1ccccc1Nc1ccc2c(c1)CCc1ccc(C(=O)NCCO)cc1C2=O | remaining at 2 h [2]: 99% |
| 7.8 nM | O=C(NCCc1ccc(O)cc1)c1ccc2c(c1)C(=O)c1ccc(Nc3ccc(F)cc3F)cc1CC2 |  |
|  | N[C@@H](CNC(=O)c1ccc2c(c1)C(=O)c1ccc(Nc3ccc(F)cc3F)cc1CC2)C(=O)O | Kp at 2 h [3]: 0.003 |
| 12 nM | COC(=O)[C@@H](N)CCCCNC(=O)c1ccc2c(c1)C(=O)c1ccc(Nc3ccccc3N)cc1CC2 |  |
| 6.2 nM | NC(=O)CCNC(=O)c1ccc2c(c1)C(=O)c1ccc(Nc3ccc(F)cc3F)cc1CC2 | remaining at 2 h [2]: 95% |
| 22 nM | CC(NC(=O)c1ccc2c(c1)C(=O)c1ccc(Nc3ccc(F)cc3F)cc1CC2)C1CCCCC1 (stereo unspecified) |  |
| 2.5 nM | O=C(NC1(c2ccccc2)CC1)c1ccc2c(c1)C(=O)c1ccc(Nc3ccc(F)cc3F)cc1CC2 | Kp at 2 h [3]: 0.51; concentration at 2 h [7]: 49 ng/g |
| 3.5 nM | O=C(NCC(F)(F)F)c1ccc2c(c1)C(=O)c1ccc(Nc3ccc(F)cc3F)cc1CC2 |  |
| 21 nM | O=C(NCCc1ccc(F)cc1)c1ccc2c(c1)C(=O)c1ccc(Nc3ccc(F)cc3F)cc1CC2 |  |
| 17 nM | Nc1ccccc1Nc1ccc2c(c1)CCc1ccc(C(=O)NCCCC[C@H](N)C(=O)O)cc1C2=O |  |
| 2.1 nM | COC(=O)[C@@H](N)CCCCNC(=O)c1ccc2c(c1)C(=O)c1ccc(Nc3ccc(F)cc3F)cc1CC2 |  |
| 27 nM | Nc1ccccc1Nc1ccc2c(c1)CCc1ccc(C(=O)N[C@@H](CCC(=O)O)C(=O)O)cc1C2=O |  |
| 5.6 nM | O=C(NCCc1c[nH]cn1)c1ccc2c(c1)C(=O)c1ccc(Nc3ccc(F)cc3F)cc1CC2 | remaining at 2 h [2]: 95% |
| 6.1 nM | NC(=O)c1ccc2c(c1)C(=O)c1ccc(Nc3ccccc3N)cc1CC2 |  |
| 5.3 nM | NCCNC(=O)c1ccc2c(c1)C(=O)c1ccc(Nc3ccccc3N)cc1CC2 |  |
| 5.2 nM | O=C(NO)c1ccc2c(c1)C(=O)c1ccc(Nc3ccc(F)cc3F)cc1CC2 | remaining at 2 h [2]: 13% |
| 15 nM | Nc1ccccc1Nc1ccc2c(c1)CCc1ccc(C(=O)NC(CO)CO)cc1C2=O |  |

| IC50 [1] | Compound | further results |
| --- | --- | --- |
| 3 nM | COC(=O)[C@H](C)NC(=O)c1ccc2c(c1)C(=O)c1ccc(Nc3ccc(F)cc3F)cc1CC2 | remaining at 2 h [2]: 93% |
| 1.3 nM | O=C(NCCN1CCNCC1)c1ccc2c(c1)C(=O)c1ccc(Nc3ccc(F)cc3F)cc1CC2 | Kp at 2 h [3]: 0.24; remaining at 2 h [2]: 93% |
| 5.2 nM | O=C(N[C@@H]1[C@@H](O)[C@H](O)[C@@H](CO)O[C@H]1O)c1ccc2c(c1)C(=O)c1ccc(Nc3ccc(F)cc3F)cc1CC2 | Kp at 2 h [3]: 0.09; concentration at 2 h [7]: 5.9 ng/g |
| 6.4 nM | O=C(NCCc1cccs1)c1ccc2c(c1)C(=O)c1ccc(Nc3ccc(F)cc3F)cc1CC2 |  |
| 9.3 nM | O=C(O)CNC(=O)c1ccc2c(c1)C(=O)c1ccc(Nc3ccc(F)cc3F)cc1CC2 | Kp at 2 h [3]: 0.13; concentration at 2 h [7]: 8.2 ng/g; remaining at 2 h [2]: 93% |
| 1.9 nM | CC(C)(C)OC(=O)N1CCN(CCNC(=O)c2ccc3c(c2)C(=O)c2ccc(Nc4ccccc4N)cc2CC3)CC1 |  |
| 15 nM | Nc1ccccc1Nc1ccc2c(c1)CCc1ccc(C(=O)NCC(O)CO)cc1C2=O (stereo unspecified) |  |
| 8.4 nM | CN(C)CCNC(=O)c1ccc2c(c1)C(=O)c1ccc(Nc3ccccc3N)cc1CC2 | Kp at 2 h [3]: 0.59; remaining at 2 h [2]: 50% |
| 12 nM | COC(=O)CNC(=O)c1ccc2c(c1)C(=O)c1ccc(Nc3ccc(F)cc3F)cc1CC2 | remaining at 2 h [2]: 0% |
| > 1000 nM | CCCCCCCCCCCCCCCCNC(=O)c1ccc2c(c1)C(=O)c1ccc(Nc3ccc(F)cc3F)cc1CC2 |  |
| 6.9 nM | COC(=O)[C@H](CCSC)NC(=O)c1ccc2c(c1)C(=O)c1ccc(Nc3ccc(F)cc3F)cc1CC2 |  |
| 95 nM | CN(C)C(=O)c1ccc2c(c1)C(=O)c1ccc(Nc3ccc(F)cc3F)cc1CC2 |  |
| 26 nM | Nc1ccccc1Nc1ccc2c(c1)CCc1ccc(C(=O)NCCc3cnc[nH]3)cc1C2=O |  |
| 20 nM | Nc1ccccc1Nc1ccc2c(c1)CCc1ccc(C(=O)NCCc3ccccc3)cc1C2=O |  |
| 18 nM | Nc1ccccc1Nc1ccc2c(c1)CCc1ccc(C(=O)NCCN3CCOCC3)cc1C2=O | Kp at 2 h [3]: 0.08; remaining at 2 h [2]: < 38% |
| 11 nM | CSCC[C@H](NC(=O)c1ccc2c(c1)C(=O)c1ccc(Nc3ccc(F)cc3F)cc1CC2)C(=O)O | Drug uptake [4]: Not Active; Drug uptake [6]: Not Active |
| 390 nM | CCCCCCCCNC(=O)c1ccc2c(c1)C(=O)c1ccc(Nc3ccc(F)cc3F)cc1CC2 |  |
| 8 nM | O=C(O)CC[C@H](NC(=O)c1ccc2c(c1)C(=O)c1ccc(Nc3ccc(F)cc3F)cc1CC2)C(=O)O | remaining at 2 h [2]: 93% |
| 120 nM | O=C1c2ccc(Nc3ccc(F)cc3F)cc2CCc2ccc(C(=O)N3CCCCC3)cc21 |  |
| 21 nM | O=C(NCCc1ccccc1)c1ccc2c(c1)C(=O)c1ccc(Nc3ccc(F)cc3F)cc1CC2 |  |
| 36 nM | O=C(N[C@@H](Cc1ccccc1)C(=O)O)c1ccc2c(c1)C(=O)c1ccc(Nc3ccc(F)cc3F)cc1CC2 | Kp at 2 h [3]: 0.31; concentration at 2 h [7]: 15 ng/g |
| 15 nM | COC(=O)[C@H](Cc1ccccc1)NC(=O)c1ccc2c(c1)C(=O)c1ccc(Nc3ccc(F)cc3F)cc1CC2 |  |
| 1.7 nM | O=C(NCCNCCO)c1ccc2c(c1)C(=O)c1ccc(Nc3ccc(F)cc3F)cc1CC2 | Kp at 2 h [3]: 0.17 |
| 2.4 nM | CC(C)(C)OC(=O)N1CCN(CCNC(=O)c2ccc3c(c2)C(=O)c2ccc(Nc4ccc(F)cc4F)cc2CC3)CC1 |  |
| 17 nM | COC(=O)CC[C@H](NC(=O)c1ccc2c(c1)C(=O)c1ccc(Nc3ccccc3N)cc1CC2)C(=O)OC |  |

| Compound | IC50 [1] | further results |
| --- | --- | --- |
| O=C(NC(CO)(CO)CO)c1ccc2c(c1)C(=O)c1ccc(Nc3ccc(F)cc3F)cc1CC2 | 3 nM | Drug uptake [4]: Not Active; Activity (Blood): 5%; viability at 24 h, 0.1 µM [5]: 66%; Drug uptake [6]: Not Active; Activity (Splenocyte): Non-Toxic |
| NCCNC(=O)c1ccc2c(c1)C(=O)c1ccc(Nc3ccc(F)cc3F)cc1CC2 | 2.5 nM | Drug uptake [4]: Not Active; Activity (Blood): 5%; viability at 24 h, 0.1 µM [5]: 66%; Drug uptake [6]: Not Active; Activity (Splenocyte): Non-Toxic |
